Data on eight molecules can be found in PubChem BioAssay (NCI).

“And” between values parts separate entries of the source, which are not always exact repeats. Identical values can stand only once.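 Grown in 96-well plates, cells were treated for 48 hours with each compound at five concentrations. Insufficient inhibition: endpoint recorded as highest concentration tested. The concentration for 50% growth inhibition is given as GI50. At the TGI there is no net growth.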

Some test systems named below: 786-0 renal; SK-MEL-2 melanoma; NCI-H460 lung; SK-MEL-5 melanoma; HT29 colon; RXF 393 renal; OVCAR-4 ovarian; SF-539 CNS; HCC-2998 colon; CCRF-CEM leukemia.
Holding throughout (assay): inhibition of tumour cell growth, NCI panel, 48 h

Regarding `C=C1C(=O)OC2/C=C(/C)C(OC(C)=O)CC(O)/C(C)=C\C(OC(=O)/C(C)=C\C)C12` (configuration not stated), the TGI is 35.4 µM in the assay with 786-0 renal; more than 100 µM in the assay with SK-MEL-2 melanoma; more than 100 µM with NCI-H460 lung; more than 100 µM in the assay on SK-MEL-5 melanoma; more than 100 µM with HT29 colon; more than 100 µM in the assay with RXF 393 renal. Further, the TGI in the assay with OVCAR-4 ovarian, with SF-539 CNS, in the assay on HCC-2998 colon and with CCRF-CEM leukemia was more than 100 µM throughout.
Consider `COc1ccc(C2SC(C)C(=O)N2NC(=O)C(O)c2ccccc2)cc1OC` (configuration not stated), for which the GI50 in the assay with 786-0 renal, with SK-MEL-2 melanoma, in the assay with NCI-H460 lung, with SK-MEL-5 melanoma, in the assay with HT29 colon and in the assay with RXF 393 renal was more than 100 µM each time. For the same molecule, the GI50 in the assay with OVCAR-4 ovarian, with SF-539 CNS, in the assay on HCC-2998 colon and in the assay on CCRF-CEM leukemia was more than 100 µM each time. The TGI in the assay on 786-0 renal, in the assay on SK-MEL-2 melanoma, with NCI-H460 lung, in the assay with SK-MEL-5 melanoma, in the assay with HT29 colon and in the assay on RXF 393 renal was more than 100 µM throughout. For the same molecule, the TGI in the assay on OVCAR-4 ovarian, in the assay on SF-539 CNS, in the assay on HCC-2998 colon and with CCRF-CEM leukemia was more than 100 µM in each case.
With `Cc1cc(Cl)ccc1NC(=O)CC/C(CC(=O)C(C)C)=N\NC(=O)C[n+]1ccccc1`, the TGI in the assay with 786-0 renal, in the assay on SK-MEL-2 melanoma, in the assay on NCI-H460 lung, in the assay with SK-MEL-5 melanoma, with HT29 colon and in the assay on RXF 393 renal was more than 100 µM in each case. Also, the TGI in the assay with OVCAR-4 ovarian, in the assay with SF-539 CNS, in the assay on HCC-2998 colon and in the assay on CCRF-CEM leukemia was more than 100 µM in each case.
For the molecule `CCOc1cc2ncc(C#N)c(Nc3ccc(OCc4ccccn4)c(Cl)c3)c2cc1NC(=O)/C=C/CN(C)C`, the GI50 was 0.755 µM in the assay with 786-0 renal; 0.291 µM and 0.377 µM in the assay on SK-MEL-2 melanoma; 1.01 µM and 0.891 µM with NCI-H460 lung; 1.14 µM and 1.82 µM with SK-MEL-5 melanoma; 0.491 µM and 0.502 µM with HT29 colon; 0.421 µM with RXF 393 renal. For the same molecule, the GI50 in the assay with OVCAR-4 ovarian is 0.49 µM and 0.48 µM; in the assay on SF-539 CNS, 4.24 µM and > 4.3 µM; in the assay on HCC-2998 colon, 1.29 µM and > 2.87 µM; in the assay with CCRF-CEM leukemia it was 1.3 µM and 2.44 µM. Further, the TGI is 2.81 µM with 786-0 renal; 2.51 µM and > 4.63 µM in the assay on SK-MEL-2 melanoma; 2.88 µM and > 9.38 µM in the assay on NCI-H460 lung; 6.21 µM and 4.02 µM in the assay on SK-MEL-5 melanoma; 2.05 µM and 2.62 µM in the assay with HT29 colon; 2.28 µM in the assay with RXF 393 renal. In addition, the TGI with OVCAR-4 ovarian was 2.44 µM and > 10 µM; in the assay on SF-539 CNS it was 11.5 µM and > 9.31 µM; in the assay on HCC-2998 colon, 20.1 µM and > 7.88 µM; in the assay with CCRF-CEM leukemia, 4.95 µM and > 6.11 µM.
Regarding `CC1(C)[C@@H](OC(N)=O)[C@H]2O[C@H]2[C@]2(CO)[C@H]3CC[C@]4(C)[C@@H](c5ccc(=O)oc5)[C@@H](Cl)C[C@]4(O)C3=CC[C@@H]12`, the GI50 in the assay on 786-0 renal is 0.0052 µM; with SK-MEL-2 melanoma, 0.00818 µM; in the assay on NCI-H460 lung, 0.00468 µM; in the assay on SK-MEL-5 melanoma, 0.00681 µM; in the assay on HT29 colon it was 0.00796 µM; in the assay on RXF 393 renal it was 0.00716 µM. For the same molecule, the GI50 in the assay with OVCAR-4 ovarian was 0.00545 µM; with SF-539 CNS, 0.00453 µM; in the assay on HCC-2998 colon, 0.0151 µM; with CCRF-CEM leukemia, 0.00768 µM. Further, the TGI with 786-0 renal amounted to 0.0136 µM; in the assay with SK-MEL-2 melanoma, 0.033 µM; with NCI-H460 lung, 0.00997 µM; in the assay with SK-MEL-5 melanoma it was 0.0195 µM; with HT29 colon, 0.0238 µM; with RXF 393 renal, 0.0829 µM. The TGI is 0.0157 µM in the assay with OVCAR-4 ovarian, 0.00951 µM in the assay with SF-539 CNS, 0.107 µM in the assay with HCC-2998 colon and 0.0264 µM in the assay with CCRF-CEM leukemia.
Regarding `Nc1nc(Nc2ccc(C3CCC(N4CCOCC4)CC3)cc2)nn1-c1ccccn1` (configuration not stated), the GI50 with 786-0 renal is 2.22 µM; in the assay with SK-MEL-2 melanoma, 7.77 µM; with NCI-H460 lung, 4.59 µM; in the assay on SK-MEL-5 melanoma, 20.8 µM; in the assay with HT29 colon, 3.11 µM; in the assay with RXF 393 renal it was 2.03 µM. Moreover, the GI50 is 12.4 µM in the assay on OVCAR-4 ovarian, 1.42 µM with SF-539 CNS, 17.2 µM in the assay on HCC-2998 colon and 3.25 µM in the assay with CCRF-CEM leukemia. Besides, the TGI with 786-0 renal was 11.4 µM; in the assay with SK-MEL-2 melanoma, more than 61.8 µM; in the assay with NCI-H460 lung, more than 69.2 µM; with SK-MEL-5 melanoma, more than 88.3 µM; in the assay on HT29 colon it was more than 100 µM; in the assay on RXF 393 renal, 5.77 µM. In addition, the TGI is more than 84.9 µM with OVCAR-4 ovarian, 4.99 µM in the assay with SF-539 CNS, more than 100 µM in the assay with HCC-2998 colon and 55.9 µM in the assay on CCRF-CEM leukemia.
For `C1CN(SSN2CCOCC2)CCO1`, the GI50 in the assay with 786-0 renal is 21 µM; in the assay with SK-MEL-2 melanoma it was more than 100 µM; in the assay on NCI-H460 lung, 28.3 µM; in the assay with SK-MEL-5 melanoma, 41.1 µM; with HT29 colon, 19.9 µM; in the assay on RXF 393 renal, 21.8 µM. For the same molecule, the GI50 in the assay with OVCAR-4 ovarian was 39.6 µM; in the assay on SF-539 CNS, 24.3 µM; with HCC-2998 colon it was more than 100 µM; in the assay with CCRF-CEM leukemia, 43.9 µM. For the same molecule, the TGI is 37.1 µM in the assay on 786-0 renal; more than 100 µM with SK-MEL-2 melanoma; more than 100 µM in the assay with NCI-H460 lung; more than 100 µM in the assay on SK-MEL-5 melanoma; 43.1 µM in the assay on HT29 colon; 41.4 µM in the assay with RXF 393 renal. For the same molecule, the TGI with OVCAR-4 ovarian is more than 100 µM; in the assay on SF-539 CNS, 80.7 µM; in the assay with HCC-2998 colon it was more than 100 µM; in the assay with CCRF-CEM leukemia it was more than 100 µM.
`COc1ccc(/C=C\c2cc(OC)c(OC)c(OC)c2)cc1OC`: the GI50 in the assay with 786-0 renal is 0.616 µM; with SK-MEL-2 melanoma, 0.121 µM; in the assay with NCI-H460 lung, 0.181 µM; with SK-MEL-5 melanoma, 0.0514 µM; in the assay with HT29 colon, 0.043 µM; in the assay on OVCAR-4 ovarian it was 11.6 µM. In addition, the GI50 with SF-539 CNS was 0.0605 µM; with CCRF-CEM leukemia, 0.0791 µM. Also, the TGI in the assay on 786-0 renal is 40.4 µM and > 100 µM; with SK-MEL-2 melanoma, 40.4 µM and > 100 µM; in the assay on NCI-H460 lung it was 40.4 µM and 16.7 µM; with SK-MEL-5 melanoma, 40.4 µM and 16.8 µM; in the assay on HT29 colon it was 31.4 µM; in the assay with RXF 393 renal it was more than 100 µM. Further, the TGI is 40.4 µM and > 100 µM with OVCAR-4 ovarian; 0.294 µM and 0.283 µM in the assay with SF-539 CNS; 0.579 µM and 0.372 µM in the assay with HCC-2998 colon.
